Earlier results on one compound are cited in EP4062897A1, “HAIR CARE COMPOSITION AND PREPARATION METHOD THEREFOR” (BioRight Worldwide Company Limited, priority 2019, dated 2021).

For this data set the following is noted: in aqueous solution, typical value.

What is called half-life is how long it takes for the measured level to halve. Turning to `NC(=O)c1ccc[n+]([C@@H]2O[C@H](COP(=O)([O-])O)[C@@H](O)[C@H]2O)c1` [nicotinamide mononucleotide, Nicotinamide mononucleotide], the half-life was 14 days.
